Two compounds from patent US7666617B2, “Devices and methods for profiling enzyme substrates” (University of Maryland, Baltimore County, priority 2005, dated 2010) can be followed below.

One assay has as its system endogenous kinase NM23. Kind of assay: Endogenous NM23 kinase signal (internal control) in the CK2α reverse in-gel kinase assay. Particulars: 75 μM apigenin in assay buffer; LNCaP lysate.
A further assay has as its system Protein Kinase A (PKA). Kind of assay: PKA RIKA of TBB-treated LNCaP cell extract. Type of assay: cell-based. Particulars: TBB-treated vs vehicle-treated LNCaP lysate; RIKA gel with 50 μg/ml recombinant PKA.

Procedure for Protein Kinase A (PKA): FIG. 8A-8B, an equivalent mass of protein used for the RIKA shown in FIGS. 7A-7E was applied to a RIKA gel containing 50 μg/ml recombinant PKA. Arrows designates the activity of the endogenous kinase NM23 H1 which serves as an internal control. FIG. 8A is an autoradiogram of the PKA RIKA using the vehicle-treated lysates.
Procedure for endogenous kinase NM23: 300 μg of LNCaP lysate was treated with bacteriophage λ phosphatase at 30° C. for 1 hour. The lysate was then precipitated with TCA, resolublized in IEF rehydration buffer and applied to CKα reverse in-gel kinase assay with 25 μg of recombinant human CK2α cast in the gel. 75 μM apigenin was added in the reverse in-gel kinase assay buffer and a parallel assay was performed with same volume of vehicle (DMSO) added to the reaction buffer.

For `O=c1cc(-c2ccc(O)cc2)oc2cc(O)cc(O)c12` [Apigenin, apigenin], in the assay with endogenous kinase NM23, the “effect on endogenous kinase NM23 signal” value is reported as “not affected”.
On to `Brc1c(Br)c(Br)c2[nH]nnc2c1Br` [TBB, 4,5,6,7 tetrabromobenzotriazole], for which the “signal intensity of proteins detected in PKA RIKA, TBB-treated extract” value in the assay with Protein Kinase A (PKA) was “No increase”.
